Data reported in EP0527427A2, “Catalysts and casting article, method, and composition” (MINNESOTA MINING AND MANUFACTURING COMPANY, priority 1991, dated 1993).

What was measured:
[1] = pKa by potentiometric backtitration (compounds of Formula II, Table IX); format: physicochemical; conditions: half-neutralization point taken as pKa; backtitration with 0.01N sodium hydroxide
Description: Several of the compounds of the invention were characterized by their titration curves (i.e., their pKa values) as follows: To a 0.1 g sample of a compound of the invention was added with stirring 60 mL of distilled water, then 10 mL of 0.1N hydrochloric acid was added. The solution was stirred for 10 minutes. The pH of the solution was then measured potentiometrically using a Metrohm Model 670 TITROPROCESSOR™ potentiometer (Brinkman Instruments Inc., Westbury, NY) while backtitrating with 0.01N sodium hydroxide solution. The endpoints and half-neutralization points were determined by the instrument, and for the purposes of this determination the half-neutralization point is taken as the pKa.

[2] = Farm.Zh. (Kiev) 1990, 1, 38; cited from earlier work
[3] = Khim.-Farm.Zh. 1983, 17, 916; cited from earlier work
[4] = pKa by potentiometric backtitration (catalysts, Table I); format: physicochemical; conditions: half-neutralization point taken as pKa; backtitration with 0.1N sodium hydroxide
Description: The solution was stirred for 10 minutes, then backtitrated with 0.1N sodium hydroxide solution. The pH during backtitration was measured potentiometrically using a Metrohm Model 670 TITROPROCESSOR™ potentiometer (Brinkman Instruments Inc., Westbury, NY). The endpoint and half-neutralization point were determined by the instrument, and for the purposes of this determination the half-neutralization point is taken as the pKa.

| SMILES | Measured pKa first [1] | Measured pKa second [1] | further results |
| --- | --- | --- | --- |
| O=C(CN1CCCC1)OCCN1CCCC1 [2-(1-Pyrrolidinyl)ethyl 1-Pyrrolidineacetate] | 9.26 | 7.12 |  |
| O=C(CN1CCCC1)OCCN1CCCCC1 [2-(1-piperidino)ethyl 1-pyrrolidineacetate] | 8.97 | 6.72 |  |
| CCN(CC)CCOC(=O)CN(C)C [2-(Diethylamino)ethyl dimethylaminoacetate] |  |  | inotropic activity [2]: significant inotropic activity; analgesic activity [3]: analgesic activity |
| CN(C)CCOC(=O)CN(C)C [(CH3)2NCH2C(O)OCH2CH2N(CH3)2, 2-(N,N-Dimethylamino)ethyl N,N-Dimethylaminoacetate] |  |  | Measured pKa first [4]: 8.53; Measured pKa second [4]: 6.49 |
| CN1CCCCC1COC(=O)CN1CCCC1 (stereo not shown) [2-(1-Methylpiperidyl)methyl 1-Pyrrolidineacetate] | 9.15 | 7.03 |  |
